In ChEMBL document CHEMBL3885881, “DrugMatrix”:

Organism: Rattus norvegicus
Assay: DrugMatrix - Regimen: Daily Repeat
Type: toxicity, organism-based, Sprague-Dawley
Set-up: regimen Daily Repeat, gender Male, age 6-8 weeks
Settings: in vivo, po, route oral GAVAGE, vehicle .5 % CMC; for ABSOLUTE BASOPHIL / ABSOLUTE EOSINOPHIL / ABSOLUTE LYMPHOCYTE / ABSOLUTE MONOCYTE / ABSOLUTE SEGMENTED NEUTROPHIL / BASOPHIL / EOSINOPHIL / ERYTHROCYTE COUNT / HEMATOCRIT / HEMOGLOBIN / LEUKOCYTE COUNT / LYMPHOCYTE / MEAN CORPUSCULAR HEMOGLOBIN / MEAN CORPUSCULAR HEMOGLOBIN CONCENTRATION / MEAN CORPUSCULAR VOLUME / MONOCYTE / NEUTROPHIL / NUCLEATED RED BLOOD CELLS / PLATELET COUNT: tissue Blood; for ALANINE AMINOTRANSFERASE / ALBUMIN / ALKALINE PHOSPHATASE / ASPARTATE AMINOTRANSFERASE / BLOOD UREA NITROGEN / CARBON DIOXIDE / CHLORIDE / CHOLESTEROL / CREATINE PHOSPHOKINASE / CREATININE / GLUCOSE / LACTATE DEHYDROGENASE / LIPASE / PHOSPHORUS / POTASSIUM / SODIUM / TOTAL BILIRUBIN / TOTAL PROTEIN / URIC ACID: tissue Plasma
[1] = 25 mg/kg, 72 h, dose level Low, time 3 day
[2] = 25 mg/kg, 120 h, dose level Low, time 5 day
[3] = 1500 mg/kg, 72 h, dose level High, time 3 day
[4] = 1500 mg/kg, 120 h, dose level High, time 5 day

## COC(=O)Nc1nc2ccc([S+]([O-])c3ccccc3)cc2[nH]1 (configuration not stated) [OXFENDAZOLE]
[1]
  ABSOLUTE BASOPHIL: 0 CELLS/uL
  ABSOLUTE EOSINOPHIL: 48 CELLS/uL
  ABSOLUTE LYMPHOCYTE: 11822 CELLS/uL
  ABSOLUTE MONOCYTE: 187.33 CELLS/uL
  ABSOLUTE SEGMENTED NEUTROPHIL: 2342.67 CELLS/uL
  BASOPHIL: 0%
  EOSINOPHIL: 0.33%
  ERYTHROCYTE COUNT: 6.05 x10E6/uL
  HEMATOCRIT: 36.2%
  HEMOGLOBIN: 13.87 G/DL
  LEUKOCYTE COUNT: 14.4 x10E3/uL
  LYMPHOCYTE: 82%
  MEAN CORPUSCULAR HEMOGLOBIN: 22.93 pg
  MEAN CORPUSCULAR HEMOGLOBIN CONCENTRATION: 38.33 G/DL
  MEAN CORPUSCULAR VOLUME: 59.8 fL
  MONOCYTE: 1.33%
  NEUTROPHIL: 16.33%
  NUCLEATED RED BLOOD CELLS: 0 /100WBC
  PLATELET COUNT: 1268.67 x10E3/uL
  ALANINE AMINOTRANSFERASE: 56 u/L
  ALBUMIN: 4.13 G/DL
  ALKALINE PHOSPHATASE: 355 u/L
  ASPARTATE AMINOTRANSFERASE: 78.67 u/L
  BLOOD UREA NITROGEN: 14 mg/dL
  CARBON DIOXIDE: 25 mmol/L
  CHLORIDE: 99 MEQ/L
  CHOLESTEROL: 78.67 mg/dL
  CREATINE PHOSPHOKINASE: 173.33 u/L
  CREATININE: 0.15 mg/dL
  GLUCOSE: 161.67 mg/dL
  LACTATE DEHYDROGENASE: 153 u/L
  LIPASE: 10 u/L
  PHOSPHORUS: 13.1 mg/dL
  POTASSIUM: 8.18 MEQ/L
  SODIUM: 142.9 MEQ/L
  TOTAL BILIRUBIN: 0.2 mg/dL
  TOTAL PROTEIN: 5.77 G/DL
  URIC ACID: 2.07 mg/dL
[2]
  ABSOLUTE BASOPHIL: 0 CELLS/uL
  ABSOLUTE EOSINOPHIL: 0 CELLS/uL
  ABSOLUTE LYMPHOCYTE: 12550 CELLS/uL
  ABSOLUTE MONOCYTE: 0 CELLS/uL
  ABSOLUTE SEGMENTED NEUTROPHIL: 983.33 CELLS/uL
  BASOPHIL: 0%
  EOSINOPHIL: 0%
  ERYTHROCYTE COUNT: 5.35 x10E6/uL
  HEMATOCRIT: 31.93%
  HEMOGLOBIN: 12.77 G/DL
  LEUKOCYTE COUNT: 13.53 x10E3/uL
  LYMPHOCYTE: 93%
  MEAN CORPUSCULAR HEMOGLOBIN: 23.9 pg
  MEAN CORPUSCULAR HEMOGLOBIN CONCENTRATION: 40 G/DL
  MEAN CORPUSCULAR VOLUME: 59.73 fL
  MONOCYTE: 0%
  NEUTROPHIL: 7%
  NUCLEATED RED BLOOD CELLS: 0 /100WBC
  PLATELET COUNT: 856.67 x10E3/uL
  ALANINE AMINOTRANSFERASE: 57.67 u/L
  ALBUMIN: 4.17 G/DL
  ALKALINE PHOSPHATASE: 330.67 u/L
  ASPARTATE AMINOTRANSFERASE: 89 u/L
  BLOOD UREA NITROGEN: 16 mg/dL
  CARBON DIOXIDE: 24 mmol/L
  CHLORIDE: 100.67 MEQ/L
  CHOLESTEROL: 74 mg/dL
  CREATINE PHOSPHOKINASE: 346.33 u/L
  CREATININE: 0.21 mg/dL
  GLUCOSE: 161.67 mg/dL
  LACTATE DEHYDROGENASE: 356.67 u/L
  LIPASE: 9 u/L
  PHOSPHORUS: 12.83 mg/dL
  POTASSIUM: 7.04 MEQ/L
  SODIUM: 141.83 MEQ/L
  TOTAL BILIRUBIN: 0.2 mg/dL
  TOTAL PROTEIN: 5.9 G/DL
  URIC ACID: 2.33 mg/dL
[3]
  ABSOLUTE BASOPHIL: 0 CELLS/uL
  ABSOLUTE EOSINOPHIL: 0 CELLS/uL
  ABSOLUTE LYMPHOCYTE: 9253.67 CELLS/uL
  ABSOLUTE MONOCYTE: 174.67 CELLS/uL
  ABSOLUTE SEGMENTED NEUTROPHIL: 671.67 CELLS/uL
  BASOPHIL: 0%
  EOSINOPHIL: 0%
  ERYTHROCYTE COUNT: 5.79 x10E6/uL
  HEMATOCRIT: 34.2%
  HEMOGLOBIN: 13.37 G/DL
  LEUKOCYTE COUNT: 10.1 x10E3/uL
  LYMPHOCYTE: 91.67%
  MEAN CORPUSCULAR HEMOGLOBIN: 23.07 pg
  MEAN CORPUSCULAR HEMOGLOBIN CONCENTRATION: 39.1 G/DL
  MEAN CORPUSCULAR VOLUME: 59.03 fL
  MONOCYTE: 1.67%
  NEUTROPHIL: 6.67%
  NUCLEATED RED BLOOD CELLS: 0 /100WBC
  PLATELET COUNT: 1138.67 x10E3/uL
  ALANINE AMINOTRANSFERASE: 42.33 u/L
  ALBUMIN: 4 G/DL
  ALKALINE PHOSPHATASE: 328.67 u/L
  ASPARTATE AMINOTRANSFERASE: 70.33 u/L
  BLOOD UREA NITROGEN: 15.33 mg/dL
  CARBON DIOXIDE: 27.33 mmol/L
  CHLORIDE: 100.33 MEQ/L
  CHOLESTEROL: 67.67 mg/dL
  CREATINE PHOSPHOKINASE: 217.33 u/L
  CREATININE: 0.17 mg/dL
  GLUCOSE: 160.33 mg/dL
  LACTATE DEHYDROGENASE: 90 u/L
  LIPASE: 9.67 u/L
  PHOSPHORUS: 11.6 mg/dL
  POTASSIUM: 6.25 MEQ/L
  SODIUM: 142.17 MEQ/L
  TOTAL BILIRUBIN: 0.1 mg/dL
  TOTAL PROTEIN: 5.43 G/DL
  URIC ACID: 1.83 mg/dL
[4]
  ABSOLUTE BASOPHIL: 0 CELLS/uL
  ABSOLUTE EOSINOPHIL: 0 CELLS/uL
  ABSOLUTE LYMPHOCYTE: 9784.67 CELLS/uL
  ABSOLUTE MONOCYTE: 35.33 CELLS/uL
  ABSOLUTE SEGMENTED NEUTROPHIL: 380 CELLS/uL
  BASOPHIL: 0%
  EOSINOPHIL: 0%
  ERYTHROCYTE COUNT: 5.39 x10E6/uL
  HEMATOCRIT: 32.9%
  HEMOGLOBIN: 13.2 G/DL
  LEUKOCYTE COUNT: 10.2 x10E3/uL
  LYMPHOCYTE: 95.67%
  MEAN CORPUSCULAR HEMOGLOBIN: 24.53 pg
  MEAN CORPUSCULAR HEMOGLOBIN CONCENTRATION: 40.13 G/DL
  MEAN CORPUSCULAR VOLUME: 61.07 fL
  MONOCYTE: 0.33%
  NEUTROPHIL: 4%
  NUCLEATED RED BLOOD CELLS: 0 /100WBC
  PLATELET COUNT: 1442.33 x10E3/uL
  ALANINE AMINOTRANSFERASE: 41 u/L
  ALBUMIN: 4.17 G/DL
  ALKALINE PHOSPHATASE: 331.33 u/L
  ASPARTATE AMINOTRANSFERASE: 79.67 u/L
  BLOOD UREA NITROGEN: 15.33 mg/dL
  CARBON DIOXIDE: 27.67 mmol/L
  CHLORIDE: 101.67 MEQ/L
  CHOLESTEROL: 69.67 mg/dL
  CREATINE PHOSPHOKINASE: 228 u/L
  CREATININE: 0.16 mg/dL
  GLUCOSE: 143 mg/dL
  LACTATE DEHYDROGENASE: 165 u/L
  LIPASE: 9.33 u/L
  PHOSPHORUS: 13.13 mg/dL
  POTASSIUM: 6.91 MEQ/L
  SODIUM: 146.13 MEQ/L
  TOTAL BILIRUBIN: 0.13 mg/dL
  TOTAL PROTEIN: 5.77 G/DL
  URIC ACID: 1.7 mg/dL
